Several values for one entry are separate records, joined by “and”; a condition that tells them apart may be missing. Equal entries are not always repeated.
Tested on: 292921-168-R tumor spheroid viability
Assay: Anticancer human tumor 292921-168-R patient-derived pancreatic carcinoma cell line growth inhibition
Conditions: spheroids with HUVEC and MSC; for viability, T/C: stronger effect = lower value
In short: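 Complex spheroids of malignant cells with endothelial cells and mesenchymal stem cells; agents alone or combined, from near clinical Cmax (or 10 microM if unknown) down in half-log steps, 0.25% DMSO final.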
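Note: spheroids exposed to compounds for 7 days.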

[2H]c1nc(C)nc([2H])c1-c1cc(NC[C@@H](C)c2cccc3c(C(=O)NC)ccnc23)ncn1 + CC[C@@]1(O)C(=O)OCc2c1cc1n(c2=O)Cc2cc3c(CN(C)C)c(O)ccc3nc2-1
IC50 (curve of first compound, second compound 0.003 µM): > 10000 nM | IC50 (curve of first compound, second compound 0.00949 µM): > 10000 nM | IC50 (curve of first compound, second compound 0.03 µM): < 31.6 nM | IC50 (curve of first compound, second compound 0.0949 µM): < 31.6 nM | IC50 (curve of first compound, second compound 0.3 µM): < 31.6 nM | viability, T/C (second compound 0.003 µM, first compound 0.0316 µM): 101% | viability, T/C (second compound 0.003 µM, first compound 0.1 µM): 87.8% | viability, T/C (second compound 0.003 µM, first compound 0.316 µM): 96.9% | viability, T/C (second compound 0.003 µM, first compound 1 µM): 102% | viability, T/C (second compound 0.003 µM, first compound 3.16 µM): 93.8% | viability, T/C (second compound 0.003 µM, first compound 10 µM): 86.9% | viability, T/C (second compound 0.00949 µM, first compound 0.0316 µM): 83.3% | viability, T/C (second compound 0.00949 µM, first compound 0.1 µM): 81% | viability, T/C (second compound 0.00949 µM, first compound 0.316 µM): 77.7% | viability, T/C (second compound 0.00949 µM, first compound 1 µM): 76.9% | viability, T/C (second compound 0.00949 µM, first compound 3.16 µM): 79.8% | viability, T/C (second compound 0.00949 µM, first compound 10 µM): 70.9% | viability, T/C (second compound 0.03 µM, first compound 0.0316 µM): 49.2% | viability, T/C (second compound 0.03 µM, first compound 0.1 µM): 35.9% | viability, T/C (second compound 0.03 µM, first compound 0.316 µM): 41.5% | viability, T/C (second compound 0.03 µM, first compound 1 µM): 37.4% | viability, T/C (second compound 0.03 µM, first compound 3.16 µM): 37.4% | viability, T/C (second compound 0.03 µM, first compound 10 µM): 23% | viability, T/C (second compound 0.0949 µM, first compound 0.0316 µM): 12.1% | viability, T/C (second compound 0.0949 µM, first compound 0.1 µM): 13.4% | viability, T/C (second compound 0.0949 µM, first compound 0.316 µM): 12.2% | viability, T/C (second compound 0.0949 µM, first compound 1 µM): 12.6% | viability, T/C (second compound 0.0949 µM, first compound 3.16 µM): 9.08% | viability, T/C (second compound 0.0949 µM, first compound 10 µM): 8.57% | viability, T/C (second compound 0.3 µM, first compound 0.0316 µM): 3.57% | viability, T/C (second compound 0.3 µM, first compound 0.1 µM): 4.5% | viability, T/C (second compound 0.3 µM, first compound 0.316 µM): 3.67% | viability, T/C (second compound 0.3 µM, first compound 1 µM): 3.37% | viability, T/C (second compound 0.3 µM, first compound 3.16 µM): 3.59% | viability, T/C (second compound 0.3 µM, first compound 10 µM): 2.83%

[2H]c1nc(C)nc([2H])c1-c1cc(NC[C@@H](C)c2cccc3c(C(=O)NC)ccnc23)ncn1
viability, T/C (compound 0.0316 µM): 106% and 103% (2×) | viability, T/C (compound 0.1 µM): 104% and 93.4% and 89.7% | viability, T/C (compound 0.316 µM): 104% and 100% and 97.8% | viability, T/C (compound 1 µM): 115% and 99.2% and 93.3% | viability, T/C (compound 3.16 µM): 113% and 101% and 96.8% | viability, T/C (compound 10 µM): 95.7% and 91.2% and 95.8% | IC50 (curve of compound): > 10000 nM

O=C(c1cc(Cc2n[nH]c(=O)c3ccccc23)ccc1F)N1CCN(C(=O)C2CC2)CC1 + Cn1nnc2c(C(N)=O)ncn2c1=O
IC50 (curve of first compound, second compound 1 µM): 12900 nM | IC50 (curve of first compound, second compound 3.16 µM): 17700 nM | IC50 (curve of first compound, second compound 10 µM): 8800 nM | IC50 (curve of first compound, second compound 31.6 µM): 4050 nM | IC50 (curve of first compound, second compound 100 µM): 573 nM | viability, T/C (second compound 1 µM, first compound 0.0949 µM): 89.2% | viability, T/C (second compound 1 µM, first compound 0.3 µM): 93.1% | viability, T/C (second compound 1 µM, first compound 0.949 µM): 87% | viability, T/C (second compound 1 µM, first compound 3 µM): 86.1% | viability, T/C (second compound 1 µM, first compound 9.49 µM): 55.6% | viability, T/C (second compound 1 µM, first compound 30 µM): 34.2% | viability, T/C (second compound 3.16 µM, first compound 0.0949 µM): 100% | viability, T/C (second compound 3.16 µM, first compound 0.3 µM): 101% | viability, T/C (second compound 3.16 µM, first compound 0.949 µM): 94% | viability, T/C (second compound 3.16 µM, first compound 3 µM): 93.6% | viability, T/C (second compound 3.16 µM, first compound 9.49 µM): 63.4% | viability, T/C (second compound 3.16 µM, first compound 30 µM): 38.5% | viability, T/C (second compound 10 µM, first compound 0.0949 µM): 94.7% | viability, T/C (second compound 10 µM, first compound 0.3 µM): 92.4% | viability, T/C (second compound 10 µM, first compound 0.949 µM): 96.5% | viability, T/C (second compound 10 µM, first compound 3 µM): 82.2% | viability, T/C (second compound 10 µM, first compound 9.49 µM): 48% | viability, T/C (second compound 10 µM, first compound 30 µM): 28.3% | viability, T/C (second compound 31.6 µM, first compound 0.0949 µM): 88% | viability, T/C (second compound 31.6 µM, first compound 0.3 µM): 86.6% | viability, T/C (second compound 31.6 µM, first compound 0.949 µM): 76% | viability, T/C (second compound 31.6 µM, first compound 3 µM): 56.8% | viability, T/C (second compound 31.6 µM, first compound 9.49 µM): 32.2% | viability, T/C (second compound 31.6 µM, first compound 30 µM): 21.4% | viability, T/C (second compound 100 µM, first compound 0.0949 µM): 74.6% | viability, T/C (second compound 100 µM, first compound 0.3 µM): 58.2% | viability, T/C (second compound 100 µM, first compound 0.949 µM): 44% | viability, T/C (second compound 100 µM, first compound 3 µM): 29% | viability, T/C (second compound 100 µM, first compound 9.49 µM): 19.1% | viability, T/C (second compound 100 µM, first compound 30 µM): 17.2%

Cn1ncnc1[C@H]1c2n[nH]c(=O)c3cc(F)cc(c23)N[C@@H]1c1ccc(F)cc1
viability, T/C (compound 0.00949 µM): 101% and 87.5% and 95.8% | viability, T/C (compound 0.03 µM): 93.7% and 83.1% and 93% | viability, T/C (compound 0.0949 µM): 87.9% and 81.8% and 80.5% | viability, T/C (compound 0.3 µM): 68.6% and 62.7% and 63.2% | viability, T/C (compound 0.949 µM): 41.3% and 36.9% and 46% | viability, T/C (compound 3 µM): 14% (2×) and 11.2% | IC50 (curve of compound): 661 nM and 537 nM and 692 nM

Reference: PubChem BioAssay AID1845196 (Molecular Pharmacology Branch, DTP, NCI, 2023)
